Laboratory results reported in patent US9404081B2, “Pyruvate kinase activators for use in therapy” (AGIOS PHARMACEUTICALS, INC., priority 2011, dated 2016).

Tests used:
Type in all cases: biochemical
[1] = target: PKR R532W (Homo sapiens, UniProt P30613, R532W); test: PKR R532W Single Point Percent Activation Assay; conditions: read-out: Act, % 532W
Description: PKR R532W Single Point Percent Activation Assay
(§1) A compound described herein was diluted with DMSO and tested at 1 μM concentration. The enzyme was diluted in 1× Buffer: (100 mM KCl, 50 mM Tris 7.5, 5 mM MgCl2, 1 mM DTT, 0.03% BSA). 2 μL of compound solution was first added into wells, and then 180 μL of enzyme solution was added. Assays were assembled except for ADP, and plates were stored for 60 minutes at RT. 20 μL ADP was added to start the assay and assay output was evaluated using OD340 at SpectraMax. The assay was run at room temperature.
Final concentration: PKR R532W (100 ng/well), Tris pH 7.5 (50 mM), KCl (100 mM), MgCl2 (5 mM), ADP (0.36 mM), PEP (0.1 mM), NADH (180 μM), LDH (0.5 units, Sigma 59023), DTT (1 mM) and BSA (0.03%).

[2] = target: PKR R510Q (Homo sapiens, UniProt P30613, R510Q); test: PKR R510Q Single Point Percent Activation Assay; conditions: read-out: Act. % 510Q
Description: PKR R510Q Single Point Percent Activation Assay
as §1
Final concentration: PKR R510Q (40 ng/well), Tris pH 7.5 (50 mM), KCl (100 mM), MgCl2 (5 mM), ADP (0.2 mM), PEP (0.11 mM), NADH (180 μM), LDH (0.5 units, Sigma 59023), DTT (1 mM) and BSA (0.03%).

[3] = target: PKR wt (Homo sapiens, UniProt P30613); test: PKR WT Single Point Percent Activation Assay
Description: PKR WT Single Point Percent Activation Assay
as §1
Final concentration: PKR wt (100 ng/well), Tris pH 7.5 (50 mM), KCl (100 mM), MgCl2 (5 mM), ADP (0.48 mM), PEP (0.15 mM), NADH (180 μM), LDH (0.5 units, Sigma 59023), DTT (1 mM) and BSA (0.03%).

[4] = target: PKR T384W (Homo sapiens, UniProt P30613, T384W); test: PKR T384W Single Point Percent Activation Assay; conditions: read-out: Act. % 384W
Description: PKR T384W Single Point Percent Activation Assay
as §1, with “180 μL enzyme solution” for “180 μL of enzyme solution”
Final concentration: PKR T384W soluble (300 ng/well), Tris pH 7.5 (50 mM), KCl (100 mM), MgCl2 (5 mM), ADP (0.08 mM), PEP (0.23 mM), NADH (180 μM), LDH (0.5 units, Sigma 59023), DTT (1 mM) and BSA (0.03%).

PKR wt, sequence (P30613 whole entry): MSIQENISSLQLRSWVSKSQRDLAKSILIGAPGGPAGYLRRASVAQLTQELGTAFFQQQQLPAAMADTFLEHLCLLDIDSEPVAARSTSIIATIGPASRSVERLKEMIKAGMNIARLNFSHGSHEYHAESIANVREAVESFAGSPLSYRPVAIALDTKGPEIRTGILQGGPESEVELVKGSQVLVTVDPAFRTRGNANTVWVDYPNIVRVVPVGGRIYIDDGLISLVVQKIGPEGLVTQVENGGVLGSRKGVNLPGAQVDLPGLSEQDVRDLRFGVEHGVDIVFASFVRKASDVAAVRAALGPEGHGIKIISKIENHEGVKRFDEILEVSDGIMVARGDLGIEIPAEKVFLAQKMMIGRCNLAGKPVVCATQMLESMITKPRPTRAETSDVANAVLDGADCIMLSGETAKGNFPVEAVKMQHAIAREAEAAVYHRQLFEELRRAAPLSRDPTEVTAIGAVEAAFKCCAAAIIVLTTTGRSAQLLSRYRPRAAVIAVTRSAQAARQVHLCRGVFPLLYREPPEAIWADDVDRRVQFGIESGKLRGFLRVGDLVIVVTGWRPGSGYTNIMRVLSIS
PKR R510Q, sequence (P30613 whole entry R510Q): as the sequence (P30613 whole entry) above, with R510Q counted along it
PKR T384W, sequence (P30613 whole entry T384W): as the sequence (P30613 whole entry) above, with T384W counted along it
PKR R532W, sequence (P30613 whole entry R532W): as the sequence (P30613 whole entry) above, with R532W counted along it

SMILES	activation at 1 µM [1]	activation at 1 µM [2]	activation at 1 µM [3]	activation at 1 µM [4]
C[C@H]1CN(CC2CCCCC2)CCN1C(=O)c1ccc(NS(=O)(=O)c2cccc3cccnc23)cc1	101 to 500%	1 to 100%	1 to 100%	1 to 100%
C[C@@H]1CN(C(=O)OC2CCCCC2)CCN1C(=O)c1ccc(NS(=O)(=O)c2cccc3cccnc23)cc1	1 to 100%	1 to 100%	1 to 100%	1 to 100%
C[C@@H]1CN(C[C@@H]2CCCO2)CCN1C(=O)c1ccc(NS(=O)(=O)c2cccc3cccnc23)cc1	101 to 500%	101 to 500%	101 to 500%	101 to 500%
O=C(c1ccc(NS(=O)(=O)c2cccc3cccnc23)cc1)N1C2CCC1CN(Cc1cc(F)cc(F)c1)C2	101 to 500%	101 to 500%	101 to 500%	101 to 500%
CC(C)COC(=O)N1[C@H](C)CN(C(=O)c2ccc(NS(=O)(=O)c3cccc4cccnc34)cc2)C[C@@H]1C	1 to 100%	101 to 500%	101 to 500%	101 to 500%
CC(C)[C@H]1CN(Cc2ccc(F)cc2)CCN1C(=O)c1ccc(NS(=O)(=O)c2cccc3cccnc23)cc1	1 to 100%	1 to 100%	1 to 100%	101 to 500%
C[C@@H]1CN(C[C@H]2CCCO2)CCN1C(=O)c1ccc(NS(=O)(=O)c2cccc3cccnc23)cc1	101 to 500%	1 to 100%	101 to 500%	101 to 500%
C[C@@H]1CN(C(=O)OCCC2CCCCC2)CCN1C(=O)c1ccc(NS(=O)(=O)c2cccc3cccnc23)cc1	1 to 100%	1 to 100%	1 to 100%	1 to 100%
C[C@@H]1CN(C(=O)OCC2CC2)CCN1C(=O)c1ccc(NS(=O)(=O)c2cccc3cccnc23)cc1	101 to 500%	1 to 100%	1 to 100%	1 to 100%
C[C@@H]1CN(Cc2ccc(F)c(F)c2F)CCN1C(=O)c1ccc(NS(=O)(=O)c2cccc3cccnc23)cc1	1 to 100%	101 to 500%	1 to 100%	101 to 500%
C[C@@H]1CN(C(=O)O[C@@H]2CCOC2)CCN1C(=O)c1ccc(NS(=O)(=O)c2cccc3cccnc23)cc1	101 to 500%	1 to 100%	101 to 500%	1 to 100%
C[C@H]1CN(CC2CCOC2)CCN1C(=O)c1ccc(NS(=O)(=O)c2cccc3cccnc23)cc1Cl (some centres unmarked)	101 to 500%	1 to 100%	1 to 100%	101 to 500%
CC1CN(CC2CC2)CC(C)N1C(=O)c1ccc(NS(=O)(=O)c2cccc3cccnc23)cc1 (centres unmarked)	101 to 500%	1 to 100%	101 to 500%	101 to 500%
C[C@H]1CN(CC2CC2)CCN1C(=O)c1ccc(NS(=O)(=O)c2cccc3cccnc23)cc1Cl	1 to 100%	1 to 100%	1 to 100%	1 to 100%
C[C@@H]1CN(Cc2ccccc2F)CCN1C(=O)c1ccc(NS(=O)(=O)c2cccc3cccnc23)cc1	101 to 500%	101 to 500%	101 to 500%	101 to 500%
C[C@@H]1CN(Cc2ccccc2)CCN1C(=O)c1ccc(NS(=O)(=O)c2cccc3cccnc23)cc1	101 to 500%	101 to 500%	101 to 500%	101 to 500%
O=C(c1ccc(NS(=O)(=O)c2cccc3cccnc23)cc1)N1CC2CCC(C1)N2Cc1ccccc1	101 to 500%	101 to 500%	101 to 500%	101 to 500%
CC1CN(Cc2cc(F)c(F)cc2F)CC(C)N1C(=O)c1ccc(NS(=O)(=O)c2cccc3cccnc23)cc1 (centres unmarked)	1 to 100%	101 to 500%	101 to 500%	1 to 100%

The remaining lines, values ahead:

activation at 1 µM [1]	activation at 1 µM [2]	activation at 1 µM [3]	activation at 1 µM [4]	SMILES
1 to 100%	1 to 100%	1 to 100%	1 to 100%	CC(c1cc(F)cc(F)c1)N1CCN(C(=O)c2ccc(NS(=O)(=O)c3cccc4cccnc34)cc2)[C@@H](C)C1 (some centres unmarked)
101 to 500%	101 to 500%	101 to 500%	101 to 500%	CC(c1c(F)cc(F)cc1F)N1CCN(C(=O)c2ccc(NS(=O)(=O)c3cccc4cccnc34)cc2)[C@@H](C)C1 (some centres unmarked)
1 to 100%	101 to 500%	1 to 100%	1 to 100%	CC(c1ccc(Cl)c(F)c1)N1CCN(C(=O)c2ccc(NS(=O)(=O)c3cccc4cccnc34)cc2)[C@@H](C)C1 (some centres unmarked)
1 to 100%	1 to 100%	1 to 100%	101 to 500%	CC(C)[C@H]1CN(Cc2cc(F)cc(F)c2)CCN1C(=O)c1ccc(NS(=O)(=O)c2cccc3cccnc23)cc1
101 to 500%	101 to 500%	101 to 500%	101 to 500%	CC(c1ccc(F)cc1)N1CCN(C(=O)c2ccc(NS(=O)(=O)c3cccc4cccnc34)cc2)[C@H](C)C1 (some centres unmarked)
101 to 500%	1 to 100%	101 to 500%	101 to 500%	CC(c1ccc(F)cc1Cl)N1CCN(C(=O)c2ccc(NS(=O)(=O)c3cccc4cccnc34)cc2)[C@H](C)C1 (some centres unmarked)
1 to 100%	1 to 100%	1 to 100%	101 to 500%	C[C@H]1CN(Cc2cc(F)c(F)c(F)c2)CCN1C(=O)c1ccc(NS(=O)(=O)c2cccc3cccnc23)cc1
1 to 100%	1 to 100%	1 to 100%	1 to 100%	CC[C@H]1CN(C(C)c2cc(F)cc(F)c2)CCN1C(=O)c1ccc(NS(=O)(=O)c2cccc3cccnc23)cc1 (some centres unmarked)
101 to 500%	101 to 500%	101 to 500%	1 to 100%	CC(c1cc(F)c(F)cc1F)N1CCN(C(=O)c2ccc(NS(=O)(=O)c3cccc4cccnc34)cc2)[C@H](C)C1 (some centres unmarked)
101 to 500%	101 to 500%	1 to 100%	1 to 100%	CC1CN(Cc2cc(F)cc(F)c2)CC(C)N1C(=O)c1ccc(NS(=O)(=O)c2cccc3cccnc23)cc1 (centres unmarked)
1 to 100%	101 to 500%	1 to 100%	1 to 100%	O=C(c1ccc(NS(=O)(=O)c2cccc3cccnc23)cc1)N1CCN(Cc2cc(F)cc(F)c2)C[C@@H]1c1ccccc1
1 to 100%	101 to 500%	101 to 500%	101 to 500%	C[C@H]1CN(Cc2cc(F)cc(F)c2)CCN1C(=O)c1ccc(NS(=O)(=O)c2cccc3cccnc23)cc1
1 to 100%	101 to 500%	1 to 100%	1 to 100%	C[C@@H]1CN(Cc2cc(F)c(F)c(F)c2)CCN1C(=O)c1ccc(NS(=O)(=O)c2cccc3cccnc23)cc1
1 to 100%	1 to 100%	101 to 500%	101 to 500%	CC(c1ccc(F)c(F)c1F)N1CCN(C(=O)c2ccc(NS(=O)(=O)c3cccc4cccnc34)cc2)[C@H](C)C1 (some centres unmarked)
1 to 100%	1 to 100%	101 to 500%	101 to 500%	C[C@H]1CN(Cc2cc(F)cc(F)c2F)CCN1C(=O)c1ccc(NS(=O)(=O)c2cccc3cccnc23)cc1
101 to 500%	101 to 500%	101 to 500%	101 to 500%	O=C1CN(C(=O)c2ccc(NS(=O)(=O)c3cccc4cccnc34)cc2)CCN1Cc1cc(F)cc(F)c1
101 to 500%	1 to 100%	101 to 500%	101 to 500%	CC[C@H]1CN(Cc2ccc(F)cc2)CCN1C(=O)c1ccc(NS(=O)(=O)c2cccc3cccnc23)cc1
